Patent US20090018169A1, “Sulfonamide Derivatives for the Treatment of Bacterial Infections” (Laboratoires Serono SA, priority 2006, published 2009)

target: recombinant MPTPB enzyme (Mycobacterium tuberculosis, UniProt I6WXK4); assay: MPTPB enzymatic assay (DiFMUP substrate, fluorescence); format: biochemical; conditions: recombinant MPTPB 50 ng/ml, pH 6.6, 45 minutes at room temperature
Protocol: The compounds of the inventions have been tested in the following enzymatic assay:
Five μl of diluted compound or vehicle (100% DMSO) was distributed to a 96 well plate. 55 μl of DiFMUP 72.7 μM diluted in MPTPB buffer (20 mM Bis Tris HCl pH 6.6, 0.1% Brij 35, 1 mM DL-Dithiothreitol) was added, followed by 40 μl of recombinant MPTPB enzyme (50 ng/ml) diluted in MPTPB buffer in order to start the reaction. After 45 minutes incubation at room temperature fluorescence intensity was measured on a Perkin-Elmer Fusion spectrofluorimeter (excitation at 355 nm, emission at 460 nm, for 0.2 s).
Examples of inhibitory activities for compounds of the invention are set out in Table I below.

recombinant MPTPB enzyme, sequence (I6WXK4 whole entry, looked up): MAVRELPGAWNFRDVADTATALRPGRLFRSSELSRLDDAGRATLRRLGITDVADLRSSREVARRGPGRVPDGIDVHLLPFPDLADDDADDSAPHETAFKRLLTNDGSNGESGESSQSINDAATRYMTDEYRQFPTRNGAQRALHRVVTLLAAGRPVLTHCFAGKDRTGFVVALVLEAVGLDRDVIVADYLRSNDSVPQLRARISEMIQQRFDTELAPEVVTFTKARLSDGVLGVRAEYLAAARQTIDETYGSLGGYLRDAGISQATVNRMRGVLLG

SMILES	IC50 [µM]
O=C(O)C(=O)N(Cc1cccc(Cl)c1)Cc1ccc(S(=O)(=O)NCCC(c2ccccc2)c2ccccc2)s1 [Example 14, {(3-chlorobenzyl) [(5-{[(3,3-diphenylpropyl)amino]sulfonyl}-2-thienyl)-methyl]amino}(oxo)acetic acid]	0.79
CCCCCCCCCCCCNS(=O)(=O)c1ccc(CN(Cc2ccccc2F)C(=O)C(=O)O)s1 [Example 6, [({5-[(dodecylamino)sulfonyl]-2-thienyl}methyl)(2-fluorobenzyl)amino]-(oxo)acetic acid]	0.74
CC(CNS(=O)(=O)c1ccc(CN(Cc2cccc(Cl)c2)C(=O)C(=O)O)s1)c1ccc(Cl)cc1 (stereo not drawn) [Example 24, ((3-chlorobenzyl){[5-({[2-(4-chlorophenyl)propyl]amino}sulfonyl)-2-thienyl]methyl}amino)(oxo)acetic acid]	0.77
